# Test results published in patent publication US12729177B2, “Small molecules promoting sympathetic nerve regeneration” (OREGON HEALTH & SCIENCE UNIVERSITY, priority 2020, dated 2026).
# Columns and labels:
# [1] = tested on: panel of other protein phosphatases; test: Screen against a panel of other protein phosphatases; format: biochemical
# [2] = tested on: sympathetic nerve density in the infarct; test: Sympathetic reinnervation of the infarct after myocardial ischemia-reperfusion (TH+ fiber density); format: in vivo, mouse; conditions: mice, s.c. daily days 3-10 after MI; HJ-01, HJ-02 10 mg/kg, ISP 10 μmol; day 14
# ISO-stimulated PVCs = test: Isoproterenol-induced arrhythmias after MI, ECG telemetry; format: in vivo, mouse; conditions: MI mice, s.c. daily days 3-10; HJ-01, HJ-02 10 mg/kg, ISP 10 μmol; 10 μg isoproterenol, 14 days after MI
# [3] = tested on: cardiac output and ejection fraction; test: Echocardiography of cardiac function after MI; format: in vivo, mouse; conditions: MI mice, response to isoproterenol
# infarct size = test: Infarct size after myocardial ischemia-reperfusion; format: in vivo, mouse; conditions: MI mice, treatment beginning three days after reperfusion (days 3-10); infarct as percentage of LV
# cardiac vasculature = test: Vascular immunohistochemistry (α-SMA, CD31) after MI; format: in vivo, mouse; conditions: 14 days after MI; infarct, peri-infarct, remote myocardium
# [4] = molecular target: T1, PTPσ D1D2 catalytic domain (Homo sapiens, UniProt Q13332); conditions: for D1 phosphatase activity (pNPP): 1 μM HJ-02, orthovanadate 10 mM
# T1 sequence (Q13332 1304-1948 limits assumed): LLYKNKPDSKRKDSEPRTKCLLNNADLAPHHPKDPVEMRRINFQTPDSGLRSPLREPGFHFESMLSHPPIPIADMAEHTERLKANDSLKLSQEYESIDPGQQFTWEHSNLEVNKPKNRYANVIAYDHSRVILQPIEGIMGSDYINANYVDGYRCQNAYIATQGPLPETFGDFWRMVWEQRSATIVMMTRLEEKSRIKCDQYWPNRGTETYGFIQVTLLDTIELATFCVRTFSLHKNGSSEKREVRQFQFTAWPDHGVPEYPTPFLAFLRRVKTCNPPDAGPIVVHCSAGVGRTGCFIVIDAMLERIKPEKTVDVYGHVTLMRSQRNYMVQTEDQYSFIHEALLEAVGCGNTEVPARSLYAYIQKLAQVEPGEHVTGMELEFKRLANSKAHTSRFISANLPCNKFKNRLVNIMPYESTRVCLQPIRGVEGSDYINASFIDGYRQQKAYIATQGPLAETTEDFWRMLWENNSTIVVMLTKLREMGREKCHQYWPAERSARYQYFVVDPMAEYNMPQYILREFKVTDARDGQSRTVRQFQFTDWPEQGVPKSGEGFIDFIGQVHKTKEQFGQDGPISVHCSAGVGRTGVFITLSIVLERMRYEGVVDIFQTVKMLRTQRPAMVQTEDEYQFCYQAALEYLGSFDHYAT
# sympathetic axons = test: Compartmentalized cultures: microfluidic chambers, axonal compartment coated with CSPGs; conditions: added to the axonal (distal) compartment for 3 hours
# [5] = tested on: PTPσ inhibition of TrkB signaling (ERK1/2 phosphorylation); test: TrkB stimulated ERK phosphorylation in TrkB-HEK-293t cells co-expressing full-length PTPσ; conditions: BDNF-induced
# sympathetic neurons = test: Sympathetic outgrowth assay: dissociated sympathetic neurons on laminin or laminin and CSPGs, live cell imaging; conditions: 10 ng/mL NGF, imaging over 30 hr
# TrkA-PTPσ interaction = TrkA-PTPσ interaction (Homo sapiens, UniProt Q13332); test: Immunoprecipitation assay: TrkA-RFP pulldown of PTPσ in transfected HEK-293t cells; conditions: 1 uM; HEK-293 cells treated with CSPGs and NGF; normalized to vehicle
# Chain of TrkA-PTPσ interaction (Q13332 30-1948): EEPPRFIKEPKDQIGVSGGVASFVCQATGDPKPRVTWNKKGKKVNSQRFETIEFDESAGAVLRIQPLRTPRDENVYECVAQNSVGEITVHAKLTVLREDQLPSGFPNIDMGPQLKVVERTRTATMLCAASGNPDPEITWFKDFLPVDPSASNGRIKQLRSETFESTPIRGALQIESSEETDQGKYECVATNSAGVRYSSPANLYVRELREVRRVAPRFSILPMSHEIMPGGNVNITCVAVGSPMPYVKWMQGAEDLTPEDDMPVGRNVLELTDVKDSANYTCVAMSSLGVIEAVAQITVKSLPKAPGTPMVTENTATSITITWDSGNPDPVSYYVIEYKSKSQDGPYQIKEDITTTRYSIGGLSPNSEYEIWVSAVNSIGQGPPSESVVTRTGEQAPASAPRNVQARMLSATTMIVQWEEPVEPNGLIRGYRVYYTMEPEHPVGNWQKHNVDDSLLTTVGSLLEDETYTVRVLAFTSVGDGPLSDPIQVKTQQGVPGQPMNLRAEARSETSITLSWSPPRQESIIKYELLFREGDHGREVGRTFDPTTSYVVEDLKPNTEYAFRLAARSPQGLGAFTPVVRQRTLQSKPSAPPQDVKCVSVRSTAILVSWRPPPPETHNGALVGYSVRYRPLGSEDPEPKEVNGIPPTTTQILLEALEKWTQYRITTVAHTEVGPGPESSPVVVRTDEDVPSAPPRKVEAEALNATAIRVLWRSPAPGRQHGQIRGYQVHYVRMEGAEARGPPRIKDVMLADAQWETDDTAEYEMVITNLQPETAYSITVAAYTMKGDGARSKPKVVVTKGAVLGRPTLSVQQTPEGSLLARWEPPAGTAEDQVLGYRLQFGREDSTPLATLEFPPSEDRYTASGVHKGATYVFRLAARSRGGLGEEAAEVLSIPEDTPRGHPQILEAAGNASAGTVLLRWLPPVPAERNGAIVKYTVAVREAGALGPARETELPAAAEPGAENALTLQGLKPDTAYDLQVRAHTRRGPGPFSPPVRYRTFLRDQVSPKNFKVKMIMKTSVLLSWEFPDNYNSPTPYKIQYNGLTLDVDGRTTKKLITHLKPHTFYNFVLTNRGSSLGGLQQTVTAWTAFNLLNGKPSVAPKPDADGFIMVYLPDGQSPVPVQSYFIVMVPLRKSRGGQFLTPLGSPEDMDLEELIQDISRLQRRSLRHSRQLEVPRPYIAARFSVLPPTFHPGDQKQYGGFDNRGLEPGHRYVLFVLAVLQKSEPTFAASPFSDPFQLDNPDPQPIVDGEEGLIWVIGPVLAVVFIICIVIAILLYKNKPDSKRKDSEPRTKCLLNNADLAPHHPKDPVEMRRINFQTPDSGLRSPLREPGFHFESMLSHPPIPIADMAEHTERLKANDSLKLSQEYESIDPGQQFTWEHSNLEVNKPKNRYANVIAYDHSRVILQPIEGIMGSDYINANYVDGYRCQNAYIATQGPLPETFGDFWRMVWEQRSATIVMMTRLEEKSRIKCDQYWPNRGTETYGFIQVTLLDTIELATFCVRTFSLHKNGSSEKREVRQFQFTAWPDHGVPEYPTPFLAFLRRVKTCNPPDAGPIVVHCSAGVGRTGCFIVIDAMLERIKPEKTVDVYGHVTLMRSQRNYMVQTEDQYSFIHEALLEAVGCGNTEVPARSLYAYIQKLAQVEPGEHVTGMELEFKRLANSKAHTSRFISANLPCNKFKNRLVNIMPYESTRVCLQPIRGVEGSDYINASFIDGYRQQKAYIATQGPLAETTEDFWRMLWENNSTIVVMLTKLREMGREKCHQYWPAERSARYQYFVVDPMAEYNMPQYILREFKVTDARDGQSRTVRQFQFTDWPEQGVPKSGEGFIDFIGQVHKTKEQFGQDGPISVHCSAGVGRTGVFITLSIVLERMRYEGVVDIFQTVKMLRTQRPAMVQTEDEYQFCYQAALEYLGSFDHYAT
# PTPα catalytic activity = conditions: read-out: IC50 against PTPα catalytic activity in vitro; cited from earlier work
Compound,inhibition of other protein phosphatases in the screen [1],nerve density within the infarct [2],ISO-stimulated arrhythmias (PVCs) (ISO-stimulated PVCs),beta adrenergic receptor supersensitivity [3],infarct size (infarct size),"density of vasculature (α-SMA, CD31) (cardiac vasculature)",defasiculation of axon bundles growing over CSPGs (sympathetic axons),rate of axon outgrowth over CSPGs (sympathetic axons),concentration rescuing ERK1/2 phosphorylation [5],concentration fully restoring sympathetic axon outgrowth over CSPGs (sympathetic neurons),D1 phosphatase activity (pNPP) [4],other results
"C=CC(=O)Nc1cc(OC)c(OCC2CCCCC2)cc1C(=O)O [HJ-01, 2-acrylamido-5-(cyclohexylmethoxy)-4-methoxybenzoic Acid]",neither HJ-01 nor HJ-02 inhibited any of the protein phosphatases,restored nerve density within the infarct to the density in sham and uninjured peri-infarct myocardium,had arrhythmias similar to sham mice,prevented beta adrenergic receptor supersensitivity,significantly smaller infarcts compared to vehicle hearts,no difference in the density of vasculature between any treatment groups,stimulated the defasiculation of axon bundles,enhanced the rate of axon outgrowth,100 nM,100 nM,–,"catalytic activity of recombinant PTPσ ([4]; concluding statement, no concentration printed for HJ-01): do not inhibit the catalytic activity of recombinant PTPσ"
"C=CC(=O)Nc1cc(OC)c(OCCCCCC)cc1C(=O)O [HJ-02, 2-acrylamido-5-(hexyloxy)-4-methoxybenzoic Acid]",neither HJ-01 nor HJ-02 inhibited any of the protein phosphatases,restored nerve density within the infarct to the density in sham and uninjured peri-infarct myocardium,had arrhythmias similar to sham mice,prevented beta adrenergic receptor supersensitivity,significantly smaller infarcts compared to vehicle hearts,no difference in the density of vasculature between any treatment groups,stimulated the defasiculation of axon bundles,enhanced the rate of axon outgrowth,10 nM,30 nM,did not inhibit D1 phosphatase activity,–
"CCC(=O)Nc1cc(OC)c(OCC2CCCCC2)cc1C(=O)O [HJ-03, 5-(cyclohexylmethoxy)-4-methoxy-2-propionamidobenzoic Acid]",–,–,–,–,–,–,–,–,–,–,–,amount of PTPRS co-immunoprecipitated with TrkA-RFP (TrkA-PTPσ interaction): had no effect
CC1(C)Cc2c(O)c(C=O)c3c(c2C1)C(=O)OC(O)C3 (stereo not drawn) [Illudalic acid],–,–,–,–,–,–,–,–,–,–,–,IC50 (PTPα catalytic activity): ~1000 nM
"[Na+].[Na+].[Na+].[O]=[V]([O-])([O-])[O-] [orthovanadate, sodium-orthovanadate, reference compound]",–,–,–,–,–,–,–,–,–,–,negligible phosphatase activity,–
chondroitinase ABC [reference compound],–,–,–,–,–,–,stimulated the defasiculation of axon bundles,enhanced the rate of axon outgrowth,–,–,–,–
